According to PubChem BioAssay AID248 (DTP/NCI, 2004):
Where “and” joins values, the source holds several entries; their conditions need not be identical. Identical values can stand only once. Toxic doses and inconclusive results are not listed. Cut-off read from the data, not from the text of the source: active = T/C of 150% or more; inactive = T/C below 125%.

Tested on: L1210 leukemia ip in BDF1 mice, survival T/C
Assay: NCI In Vivo Anticancer Drug Screen. Data for tumor model L1210 Leukemia (intraperitoneal) in B6D2F1 (BDF1) mice
Settings: endpoint: mean survival time, higher = longer survival
How it was run: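 Antitumor effect is assessed in tumor-bearing animals. Survival in the compound arm is compared with a vehicle-dosed control arm and expressed as their quotient.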

[1] = dose: 100.0 mg/kg/injection, schedule: Q04DX003 (ip), vehicle: saline
[2] = dose: 200.0 mg/kg/injection, schedule: Q04DX003 (ip), vehicle: saline
[3] = dose: 400.0 mg/kg/injection, schedule: Q04DX003 (ip), vehicle: saline
[4] = dose: 100.0 mg/kg/injection, schedule: Q01DX009 (ip), vehicle: saline
[5] = dose: 200.0 mg/kg/injection, schedule: Q01DX009 (ip), vehicle: saline
[6] = dose: 400.0 mg/kg/injection, schedule: Q01DX009 (ip), vehicle: saline
[7] = dose: 100.0 mg/kg/injection, schedule: Q01DX009 (ip), vehicle: Klucel (hydroxypropylcellulose) (HPC)
[8] = dose: 200.0 mg/kg/injection, schedule: Q01DX009 (ip), vehicle: Klucel (hydroxypropylcellulose) (HPC)
[9] = dose: 100.0 mg/kg/injection, schedule: Q01DX001 (ip), vehicle: saline with Tween-80
[10] = dose: 200.0 mg/kg/injection, schedule: Q01DX001 (ip), vehicle: saline with Tween-80
[11] = dose: 400.0 mg/kg/injection, schedule: Q01DX001 (ip), vehicle: saline with Tween-80
[12] = dose: 75.0 mg/kg/injection, schedule: Q01DX001 (ip), vehicle: carboxymethylcellulose (CMC)
[13] = dose: 100.0 mg/kg/injection, schedule: Q01DX001 (ip), vehicle: saline
[14] = dose: 200.0 mg/kg/injection, schedule: Q01DX001 (ip), vehicle: saline
[15] = dose: 400.0 mg/kg/injection, schedule: Q01DX001 (ip), vehicle: saline

Measured: T/C

CCOCCN1CCN(CCCN2c3ccccc3Sc3ccc(C(F)(F)F)cc32)CC1
inactive: dose: 0.19 mg/kg/injection, schedule: Q01DX009 (ip), vehicle: water 95 % of control | dose: 0.39 mg/kg/injection, schedule: Q01DX009 (ip), vehicle: water 98 % of control | dose: 0.78 mg/kg/injection, schedule: Q01DX009 (ip), vehicle: water 111 % of control | dose: 1.56 mg/kg/injection, schedule: Q01DX009 (ip), vehicle: water 110 % of control | dose: 22.0 mg/kg/injection, schedule: Q04DX003 (ip), vehicle: other 122 % of control | dose: 100.0 mg/kg/injection, schedule: Q04DX003 (ip), vehicle: water 98 % of control

CC(C)(Oc1ccc(Cl)cc1)C(=O)O (tested in a mixture with another compound)
inactive: [1] 94 % of control | [2] 91 % of control | [3] 91 % of control

CC(=O)C(C(C)=O)C1C=CC=CC=C1
inactive: dose: 50.0 mg/kg/injection, schedule: Q01DX009 (ip), vehicle: saline with Tween-80 93 % of control | dose: 100.0 mg/kg/injection, schedule: Q01DX009 (ip), vehicle: saline with Tween-80 104 % of control | [1] 95 % of control | dose: 200.0 mg/kg/injection, schedule: Q01DX009 (ip), vehicle: saline with Tween-80 86 % of control | [2] 122 % of control

O=C(O)CCC(=O)Nc1ccc2c(c1)B(O)OC2
inactive: dose: 50.0 mg/kg/injection, schedule: Q04DX003 (ip), vehicle: Klucel (hydroxypropylcellulose) (HPC) 101 % of control | dose: 100.0 mg/kg/injection, schedule: Q04DX003 (ip), vehicle: Klucel (hydroxypropylcellulose) (HPC) 96 % of control and 90 % of control | dose: 200.0 mg/kg/injection, schedule: Q04DX003 (ip), vehicle: Klucel (hydroxypropylcellulose) (HPC) 96 % of control | dose: 400.0 mg/kg/injection, schedule: Q04DX003 (ip), vehicle: Klucel (hydroxypropylcellulose) (HPC) 88 % of control

CC(=O)Nc1ccc(C(C)(C)c2ccc([N+](=O)[O-])cc2)cc1[N+](=O)[O-]
inactive: dose: 50.0 mg/kg/injection, schedule: Q01DX001 (ip), vehicle: other 98 % of control | dose: 100.0 mg/kg/injection, schedule: Q01DX001 (ip), vehicle: other 104 % of control | dose: 400.0 mg/kg/injection, schedule: Q01DX001 (ip), vehicle: other 93 % of control

CCCCCC(Oc1ccc(Cl)cc1)C(=O)OCC (stereo unspecified)
inactive: [4] 101 % of control | [5] 90 % of control | [6] 114 % of control

COc1ccc(-c2cnc(C(N)=O)c(=O)[nH]2)cc1
inactive: dose: 100.0 mg/kg/injection, schedule: Q04DX003 (ip), vehicle: saline with Tween-80 88 % of control | dose: 200.0 mg/kg/injection, schedule: Q04DX003 (ip), vehicle: saline with Tween-80 95 % of control | dose: 400.0 mg/kg/injection, schedule: Q04DX003 (ip), vehicle: saline with Tween-80 91 % of control

Clc1ccc(CN2COc3c(ccc4cccnc34)C2)cc1Cl
inactive: dose: 100.0 mg/kg/injection, schedule: Q04DX003 (ip), vehicle: saline sonified 105 % of control | dose: 200.0 mg/kg/injection, schedule: Q04DX003 (ip), vehicle: saline sonified 94 % of control | dose: 400.0 mg/kg/injection, schedule: Q04DX003 (ip), vehicle: saline sonified 100 % of control

O=S(=O)(O)c1ccc(N=Nc2c(O)cc(O)cc2O)cc1
inactive: [1] 94 % of control | [2] 97 % of control | [3] 93 % of control

CC(C)(C)c1cc(C#N)cc(Br)c1O
inactive: dose: 25.0 mg/kg/injection, schedule: Q04DX002 (ip), vehicle: saline with Tween-80 102 % of control | dose: 50.0 mg/kg/injection, schedule: Q04DX002 (ip), vehicle: saline with Tween-80 97 % of control | dose: 100.0 mg/kg/injection, schedule: Q04DX002 (ip), vehicle: saline with Tween-80 97 % of control and 102 % of control

c1cncc(C2OCCO2)c1
inactive: [1] 98 % of control | [2] 92 % of control | [3] 105 % of control

OCC1OC(n2cnc3c(NO)ncnc32)CC1O (stereo unspecified)
inactive: dose: 50.0 mg/kg/injection, schedule: Q01DX001 (ip), vehicle: carboxymethylcellulose (CMC) 102 % of control | dose: 100.0 mg/kg/injection, schedule: Q01DX001 (ip), vehicle: carboxymethylcellulose (CMC) 109 % of control | dose: 200.0 mg/kg/injection, schedule: Q01DX001 (ip), vehicle: carboxymethylcellulose (CMC) 109 % of control | dose: 400.0 mg/kg/injection, schedule: Q01DX001 (ip), vehicle: carboxymethylcellulose (CMC) 109 % of control

CCN(CC)CCNC(=O)c1ccc(N=Cc2cc(Cl)cc(Cl)c2O)cc1
inactive: [7] 100 % of control | [8] 96 % of control

O=C1c2ccccc2-c2cccc3ccc(C4CCCCC4)c1c23
inactive: [9] 88 % of control | [10] 88 % of control | [11] 92 % of control

COC1=C(N2CC2)C(=O)C(OC)=C(N2CC2)C1=O
inactive: dose: 0.5 mg/kg/injection, schedule: Q01DX009 (ip), vehicle: carboxymethylcellulose (CMC) 114 % of control | dose: 1.0 mg/kg/injection, schedule: Q01DX009 (ip), vehicle: carboxymethylcellulose (CMC) 124 % of control | dose: 3.0 mg/kg/injection, schedule: Q01DX009 (ip), vehicle: carboxymethylcellulose (CMC) 121 % of control

COc1ccc2c(ccc[n+]2C)c1
inactive: dose: 11.0 mg/kg/injection, schedule: Q01DX009 (ip), vehicle: saline 103 % of control | dose: 12.5 mg/kg/injection, schedule: Q01DX009 (ip), vehicle: saline 102 % of control | dose: 12.5 mg/kg/injection, schedule: Q04DX003 (ip), vehicle: saline with Tween-80 96 % of control | dose: 16.5 mg/kg/injection, schedule: Q01DX009 (ip), vehicle: saline 117 % of control | dose: 25.0 mg/kg/injection, schedule: Q01DX009 (ip), vehicle: saline 109 % of control and 110 % of control | dose: 25.0 mg/kg/injection, schedule: Q04DX003 (ip), vehicle: saline with Tween-80 102 % of control | dose: 33.0 mg/kg/injection, schedule: Q01DX009 (ip), vehicle: saline 113 % of control | dose: 37.5 mg/kg/injection, schedule: Q01DX009 (ip), vehicle: saline 115 % of control | dose: 50.0 mg/kg/injection, schedule: Q01DX009 (ip), vehicle: saline 115 % of control and 87 % of control | dose: 50.0 mg/kg/injection, schedule: Q04DX003 (ip), vehicle: saline with Tween-80 100 % of control | [12] 108 % of control

COC(=O)/C=C/C(=O)O
inactive: [12] 86 % of control

O=S(=O)(C1CC1c1ccccc1)N1CCOCC1 (stereo unspecified)
inactive: [13] 101 % of control | [14] 106 % of control | [15] 95 % of control

CCOC(=O)C(NC(C)=O)C(N)=S (stereo unspecified)
inactive: [13] 99 % of control | [4] 108 % of control | [1] 102 % of control | [14] 93 % of control | [5] 97 % of control | [2] 96 % of control | [15] 94 % of control | [6] 105 % of control | [3] 106 % of control

O=[N+]([O-])c1cccc(C=Nc2cc(Cl)ccc2O)c1
inactive: [7] 95 % of control and 86 % of control | [8] 96 % of control and 97 % of control | dose: 400.0 mg/kg/injection, schedule: Q01DX009 (ip), vehicle: Klucel (hydroxypropylcellulose) (HPC) 100 % of control and 91 % of control

O=S(=O)(/N=C1\C=CC=C\C1=N/S(=O)(=O)c1ccccc1)c1ccccc1
inactive: [9] 103 % of control | [10] 100 % of control | [11] 92 % of control
